The text below walks through data of US5629343A, “N-(mercaptoacyl) peptidyl derivatives as antidegenerative agents” (Merck & Co., Inc., priority 1995, dated 1997).

Like-named read-outs stand apart in the source and are kept apart here.

One experiment addresses stromelysin (Homo sapiens, UniProt P08254). The experiment can be described thus: Inhibition of stromelysin: hydrolysis of substance P, semicontinuous HPLC-based assay. In kind it is biochemical. The settings on record: for IC50: substrate substance P.
For experiment [1], the target named is T1, human rheumatoid synovial collagenase (Homo sapiens, UniProt P03956).
T1 sequence (P03956 100-469): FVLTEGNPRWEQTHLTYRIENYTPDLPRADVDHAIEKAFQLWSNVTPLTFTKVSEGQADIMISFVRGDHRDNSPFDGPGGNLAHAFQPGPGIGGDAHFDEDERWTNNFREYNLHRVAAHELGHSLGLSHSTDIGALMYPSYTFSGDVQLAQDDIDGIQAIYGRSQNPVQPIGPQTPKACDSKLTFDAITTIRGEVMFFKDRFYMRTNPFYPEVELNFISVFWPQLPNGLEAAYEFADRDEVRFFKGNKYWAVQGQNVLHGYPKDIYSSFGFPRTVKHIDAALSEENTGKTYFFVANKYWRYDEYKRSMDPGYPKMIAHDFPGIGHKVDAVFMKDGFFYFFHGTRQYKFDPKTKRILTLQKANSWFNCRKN
The settings on record: cited from earlier work.

Experiment [2] addresses rabbit bone proteoglycanase (Oryctolagus cuniculus, UniProt P28863). Conditions: cited from earlier work.
Setting [3] is: higher Rf isomer (diastereomer), read-out: IC50 ± S.E. Higher Rf isomer.
Setting [4] is: lower Rf isomer (diastereomer), read-out: IC50 ± S.E. Lower Rf isomer.

Sequence of stromelysin (P08254 100-477): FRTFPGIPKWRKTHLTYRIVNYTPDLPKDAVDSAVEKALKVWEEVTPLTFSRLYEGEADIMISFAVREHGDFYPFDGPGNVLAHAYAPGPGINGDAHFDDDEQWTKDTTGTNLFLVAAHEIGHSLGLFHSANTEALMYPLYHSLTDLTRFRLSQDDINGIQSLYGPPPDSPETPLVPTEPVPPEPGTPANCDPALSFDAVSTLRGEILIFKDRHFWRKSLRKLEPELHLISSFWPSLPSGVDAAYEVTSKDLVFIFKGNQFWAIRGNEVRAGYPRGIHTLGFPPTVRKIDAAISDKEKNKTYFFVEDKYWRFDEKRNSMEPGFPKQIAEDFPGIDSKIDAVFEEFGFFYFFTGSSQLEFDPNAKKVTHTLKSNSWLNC
Sequence of rabbit bone proteoglycanase (P28863 101-478): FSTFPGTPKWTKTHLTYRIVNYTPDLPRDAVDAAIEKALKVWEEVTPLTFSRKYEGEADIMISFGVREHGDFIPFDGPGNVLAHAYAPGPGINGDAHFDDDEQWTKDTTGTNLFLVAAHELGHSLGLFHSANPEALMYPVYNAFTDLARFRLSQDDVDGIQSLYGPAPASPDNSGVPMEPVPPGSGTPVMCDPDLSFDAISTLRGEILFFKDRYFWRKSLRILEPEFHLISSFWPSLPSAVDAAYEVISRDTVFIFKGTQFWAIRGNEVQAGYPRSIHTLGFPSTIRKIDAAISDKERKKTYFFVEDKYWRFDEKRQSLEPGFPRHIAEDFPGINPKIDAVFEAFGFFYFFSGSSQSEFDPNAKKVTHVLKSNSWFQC

Take `NC(=O)[C@H](Cc1ccccc1)NC(=O)C(CS)CCc1ccccc1` (stereo partly drawn) [Compound 1e, N-(2-Thiomethyl-4-phenylbutanoyl)-(L)-phenylalaninamide]: the results for the IC50 at stromelysin (setting [3]) and at stromelysin (setting [4]) were 3100 ± 500 nM and 1900 ± 600 nM, respectively.
Regarding `O=C(N[C@@H](Cc1ccccc1)C(=O)Nc1ccccc1)C(CS)CCc1ccccc1` (stereo partly drawn) [Compound 1f, N-(2-Thiomethyl-4-phenylbutanoyl)-(L)-phenylalanine, N-phenylamide], the figures for the half-maximal inhibitory concentration (IC50) at stromelysin (setting [3]) and at stromelysin (setting [4]) were 1100 ± 300 nM and 2200 ± 800 nM, respectively.
Turning to `CC(C)C[C@H](NC(=O)C(CS)CCc1ccccc1)C(=O)Nc1ccccc1` (stereo partly drawn) [Compound 1b, N-(2-Thiomethyl-4-phenylbutanoyl)-(L)-leucine, N-phenylamide], the half-inhibitory concentration (IC50) – broadly, the concentration that inhibits the measured activity by half – on stromelysin (setting [3]) is 1600 ± 500 nM; at stromelysin (setting [4]), 490 ± 100 nM.
Take `CC(C)C[C@H](NC(=O)C(CS)CCc1ccccc1)C(N)=O` (stereo partly drawn) [Compound 1a, N-(2-Thiomethyl-4-phenylbutanoyl)-(L)-leucinamide]: the 50% inhibitory concentration (IC50) came to 3300 ± 400 nM at stromelysin (setting [3]) and 960 ± 100 nM at stromelysin (setting [4]).
For the compound `CC(C)C[C@H](NC(=O)C(CS)CCc1ccccc1)C(=O)NCc1ccccc1` (stereo partly drawn) [Compound 1c, N-(2-Thiomethyl-4-phenylbutanoyl)-(L)-leucine, N-benzylamide], the IC50 was determined as 7300 ± 3300 nM at stromelysin (setting [3]) and 2500 ± 1200 nM at stromelysin (setting [4]).
Take `O=C(N[C@@H](Cc1ccccc1)C(=O)NCc1ccccc1)C(CS)CCc1ccccc1` (stereo partly drawn) [Compound 1g, N-(2-Thiomethyl-4-phenylbutanoyl)-(L)-phenylalanine, N-benzylamide]: the “% inh. Higher Rf isomer” value on stromelysin (higher Rf isomer, @ 1.4 μM) is 63 % inh. For the same compound, at stromelysin (lower Rf isomer, @ 3.3 μM), the “% inh. Lower Rf isomer” value was 98 % inh.
For the compound `CNC(=O)[C@H](Cc1ccc(OC)cc1)NC(=O)[C@H](CC(C)C)NC(CCNC(=O)OCc1ccccc1)C(=O)O` (stereo partly drawn) [N-[3-(benzyloxycarbonyl)amino-1-carboxy-n-propyl]-L-leucyl-O-methyl-L-tyrosine, N-methylamide], the IC50 in experiment [1] was 800 nM; in experiment [2], 500 nM.
For the compound `O=C(O)CCNC(=O)[C@H](Cc1ccccc1)NC(=O)C(CS)CCc1ccccc1` (stereo partly drawn) [Compound 1h, N-(2-Thiomethyl-4-phenylbutanoyl)-(L)-phenylalanine-β-alanine], the IC50 on stromelysin (setting [3]) was found to be 4100 ± 350 nM.
